The values that follow come from patent US9822130B2, “Triazolo-pyrazinyl derivatives useful as soluble guanylate cyclase activators” (Merck Sharp & Dohme Corp., priority 2014, dated 2017).

In one data set the target is T1, sGC α1/β1 heterodimer stably expressed in CHO-K1 cell line (CHO-K1/sGC) (Homo sapiens, UniProt Q02108+Q02153).
T1 construct: expressed in transfected cells
T1 sequence (Q02108 1-690): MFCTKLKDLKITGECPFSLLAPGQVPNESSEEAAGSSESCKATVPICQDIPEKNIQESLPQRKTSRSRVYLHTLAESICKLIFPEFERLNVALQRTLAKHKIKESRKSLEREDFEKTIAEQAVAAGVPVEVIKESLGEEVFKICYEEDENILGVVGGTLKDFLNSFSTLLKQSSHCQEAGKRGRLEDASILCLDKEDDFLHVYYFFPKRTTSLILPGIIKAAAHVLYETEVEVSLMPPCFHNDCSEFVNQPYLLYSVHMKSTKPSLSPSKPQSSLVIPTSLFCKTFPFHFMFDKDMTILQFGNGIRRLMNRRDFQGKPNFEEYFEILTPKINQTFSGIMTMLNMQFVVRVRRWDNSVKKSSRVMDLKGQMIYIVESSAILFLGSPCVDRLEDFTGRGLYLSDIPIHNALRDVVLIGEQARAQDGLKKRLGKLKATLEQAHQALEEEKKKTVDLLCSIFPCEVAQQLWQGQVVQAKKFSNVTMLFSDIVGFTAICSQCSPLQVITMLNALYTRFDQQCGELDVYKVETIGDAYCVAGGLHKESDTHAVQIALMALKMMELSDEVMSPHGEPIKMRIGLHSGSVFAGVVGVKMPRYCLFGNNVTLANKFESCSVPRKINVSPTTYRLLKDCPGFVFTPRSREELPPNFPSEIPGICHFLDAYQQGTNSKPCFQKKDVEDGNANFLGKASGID
T1 sequence (Q02153 1-619): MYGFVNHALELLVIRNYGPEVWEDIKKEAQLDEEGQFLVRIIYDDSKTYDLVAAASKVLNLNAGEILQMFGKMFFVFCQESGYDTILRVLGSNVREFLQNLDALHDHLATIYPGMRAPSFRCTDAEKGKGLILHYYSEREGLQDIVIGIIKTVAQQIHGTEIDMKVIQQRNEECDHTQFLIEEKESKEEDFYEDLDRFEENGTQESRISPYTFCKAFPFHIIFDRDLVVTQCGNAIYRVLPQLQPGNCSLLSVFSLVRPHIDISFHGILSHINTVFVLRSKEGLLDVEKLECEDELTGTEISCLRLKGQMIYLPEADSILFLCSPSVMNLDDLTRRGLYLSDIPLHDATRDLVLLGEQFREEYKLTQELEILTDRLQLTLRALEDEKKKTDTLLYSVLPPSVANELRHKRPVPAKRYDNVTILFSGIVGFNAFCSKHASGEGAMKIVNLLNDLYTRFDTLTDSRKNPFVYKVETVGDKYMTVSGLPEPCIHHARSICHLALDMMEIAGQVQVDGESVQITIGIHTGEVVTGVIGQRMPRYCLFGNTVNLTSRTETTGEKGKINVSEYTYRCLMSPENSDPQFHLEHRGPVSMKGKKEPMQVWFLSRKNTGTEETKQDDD
Put plainly: Cell-based sGC Functional Assay (CASA Assay), cGMP generation. The settings on record: CHO-K1/sGC cells, 1 hr at 37° C., cGMP by HTRF, 4P fit; presence or absence of 1 μM DETA-NO not given; read-out: IP (nM) (inflection point). The gist of the method:
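Readout is HTRF cGMP in lysates, normalised to the maximal response of reference sGC activator Compound A (100%), with a 4P fit giving IP and fold induction. Cells were CHO-K1/sGC (human α1/β1) in EBSS buffer with IBMX, incubated 1 hr at 37° C with compound. Run with and without 1 μM DETA-NO; final DMSO 2.5%.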
`Nc1nc(-c2cn3ncnc3c(CCCC(F)(F)F)n2)nc2c1C(c1ccc(C(F)F)cn1)(C1CC1)C(=O)N2` (racemic) [Example 44B, 4-amino-5-cyclopropyl-5-(5-(difluoromethyl)pyridin-2-yl)-2-(8-(4,4,4-trifluorobutyl)-[1,2,4]triazolo[1,5-a]pyrazin-6-yl)-5H-pyrrolo[2,3-d]pyrimidin-6(7H)-one]: the EC50 worked out at 111 nM. Still for that read-out and setting: the result for `C[C@@]1(c2ccc(F)cc2)C(=O)Nc2nc(-c3cn4ncnc4c(CCC(F)(F)C(F)(F)F)n3)nc(N)c21` [Example 1A, (S)-4-Amino-5-(4-fluorophenyl)-5-methyl-2-(8-(3,3,4,4,4-pentafluorobutyl)-[1,2,4]triazolo[1,5-a]pyrazin-6-yl)-5H-pyrrolo[2,3-d]pyrimidin-6(7H)-one] reads 187 nM. Still for that read-out and setting: the same measure for `CC1(c2ccc(F)cn2)C(=O)Nc2nc(-c3cn4ncnc4c(CCC(F)(F)C(F)(F)F)n3)nc(N)c21` (centres unmarked) [Example 4B, 4-amino-5-(5-fluoropyridin-2-yl)-5-methyl-2-(8-(3,3,4,4,4-pentafluorobutyl)-[1,2,4]triazolo[1,5-a]pyrazin-6-yl)-5H-pyrrolo[2,3-d]pyrimidin-6(7H)-one]: 117 nM. Same read-out and setting: the result for `CC1(c2ccccn2)C(=O)Nc2nc(-c3cn4ncnc4c(CCCC(F)(F)F)n3)nc(O)c21` (centres unmarked) [Example 145B, 4-hydroxy-5-methyl-5-(pyridin-2-yl)-2-(8-(4,4,4-trifluorobutyl)-[1,2,4]triazolo[1,5-a]pyrazin-6-yl)-5H-pyrrolo[2,3-d]pyrimidin-6(7H)-one] reads 1220 nM; that for `O=C1Nc2nc(-c3cn4ncnc4c(CCCC(F)(F)F)n3)nc(O)c2C1(c1ccc(C(F)(F)F)cc1)C1CC1` (centres unmarked) [Example 144A, 5-cyclopropyl-4-hydroxy-2-(8-(4,4,4-trifluorobutyl)-[1,2,4]triazolo[1,5-a]pyrazin-6-yl)-5-(4-(trifluoromethyl)phenyl)-5H-pyrrolo[2,3-d]pyrimidin-6(7H)-one], 1300 nM. For the compound `CC1(c2ccc(C(F)(F)F)cn2)C(=O)Nc2nc(-c3cn4ncnc4c(CCC(F)(F)F)n3)nc(N)c21` (centres unmarked) [Example 78B, 4-amino-5-methyl-5-(5-(tritluoromethyl)pyridin-2-yl)-2-(8-(3,3,3-trifluoropropyl)-[1,2,4]triazolo[1,5-d]pyrazin-6-yl)-5H-pyrrolo[2,3-d]pyrimidin-6(7H)-one], the EC50 worked out at 550 nM. Turning to `Cc1nc2c(CCC(F)(F)C(F)(F)F)nc(-c3nc(O)c4c(n3)NC(=O)C4(C)c3ccc(Cl)c(F)c3)cn2n1` (centres unmarked) [Example 132B, 5-(4-chloro-3-fluorophenyl)-4-hydroxy-5-methyl-2-(2-methyl-8-(3,3,4,4,4-pentafluorobutyl)-[1,2,4]triazolo[1,5-a]pyrazin-6-yl)-5H-pyrrolo[2,3-d]pyrimidin-6(7H)-one], the EC50 was 442 nM. The same measure, in the same setting: the result for `C[C@@]1(c2ccc(F)cc2)C(=O)Nc2nc(-c3cn4ncnc4c(CCCC(F)(F)F)n3)nc(N)c21` [Example 23A, (S)-4-amino-5-(4-fluorophenyl)-5-mclhyl-2-(S-(4,4,4-trifluorobutyl)-[1,2,4]triazolo[1,5-a]pyrazin-6-yl)-5,7-dihydro-6H-pyrrolo[2,3-d]pyrimidin-6-one] reads 29.6 nM. The same measure, in the same setting: the same measure for `CCCc1nc(-c2nc(O)c3c(n2)NC(=O)C3(C)c2ccc(Cl)c(F)c2)cn2ncnc12` (centres unmarked) [Example 166B, 5-(4-chloro-3-fluorophenyl)-4-hydroxy-5-methyl-2-(8-propyl-[1,2,4]triazolo[1,5-a]pyrazin-6-yl)-5H-pyrrolo[2,3-d]pyrimidin-6(7H)-one]: 711 nM.

With `Cc1nnc(C2(C)C(=O)Nc3nc(-c4cn5ncnc5c(CCC(F)(F)C(F)(F)F)n4)nc(N)c32)o1` (single isomer, unassigned) [Example 97B, 4-Amino-5-methyl-5-(5-methyl-1,3,4-oxadiazol-2-yl)-2-(8-(3,3,4,4,4-pentafluorobutyl)-[1,2,4]triazolo[1,5-a]pyrazin-6-yl)-5H-pyrrolo[2,3-d]pyrimidin-6(7H)-one], the EC50 was found to be 219 nM. Still for that read-out and setting: the result for `Cc1ccc(C2(C3CC3)C(=O)Nc3nc(-c4cn5ncnc5c(CCCC(F)(F)F)n4)nc(N)c32)nc1` (racemic) [Example 47B, 4-amino-5-cyclopropyl-5-(5-methylpyridin-2-yl)-2-(8-(4,4,4-trifluorobutyl)-[1,2,4]triazolo[1,5-a]pyrazin-6-yl)-5H-pyrrolo[2,3-d]pyrimidin-6(7H)-one] reads 144 nM; that for `O=C1Nc2nc(-c3cn4ncnc4c(CCC(F)(F)C(F)(F)F)n3)nc(O)c2C1(c1ccc(F)c(F)c1)C1CC1` (centres unmarked) [Example 123A, 5-cyclopropyl-5-(3,4-difluorophenyl)-4-hydroxy-2-(8-(3,3,4,4,4-pentafluorobutyl)-[1,2,4]triazolo[1,5-a]pyrazin-6-yl)-5H-pyrrolo[2,3-d]pyrimidin-6(7H)-one], 204 nM; that for `Nc1nc(-c2cn3ncnc3c(CCCC(F)(F)F)n2)nc2c1C(c1ccccn1)(C1CC1)C(=O)N2` (centres unmarked) [Example 115A, 4-amino-5-cyclopropyl-5-(pyridin-2-yl)-2-(8-(4,4,4-trifluorobutyl)-[1,2,4]triazolo[1,5-a]pyrazin-6-yl)-5H-pyrrolo[2,3-d]pyrimidin-6(7H)-one], 233 nM. Take `Cc1nc2c(CCC(F)(F)C(F)(F)F)nc(-c3nc(N)c4c(n3)NC(=O)C4(C)c3nnc(C4CC4)o3)cn2n1` (centres unmarked) [Example 103A, 4-amino-5-(5-cyclopropyl-1,3,4-oxadiazol-2-yl)-5-methyl-2-(2-methyl-8-(3,3,4,4,4-pentafluorobutyl)-[1,2,4]triazolo[1,5-a]pyrazin-6-yl)-5H-pyrrolo[2,3-d]pyrimidin-6(7H)-one]: the EC50 came to 219 nM. For the compound `CC1(c2ncc(C(F)(F)F)cn2)C(=O)Nc2nc(-c3cn4ncnc4c(CCCC(F)(F)F)n3)nc(N)c21` (racemic) [Example 51B, 4-amino-5-methyl-2-(8-(4,4,4-trifluorobutyl)-[1,2,4]triazolo[1,5-d]pyrazin-6-yl)-5-(5-(trifluoromethyl)pyrimidin-2-yl)-5H-pyrrolo[2,3-d]pyrimidin-6(7H)-one], the EC50 stood at 15.1 nM. Still for that read-out and setting: the result for `CCCc1nc(-c2nc(N)c3c(n2)NC(=O)C3(c2ccc(C(F)(F)F)cn2)C2CC2)cn2ncnc12` (centres unmarked) [Example 56A, 4-amino-5-cyclopropyl-2-(8-propyl-[1,2,4]triazolo[1,5-a]pyrazin-6-yl)-5-(5-(trifluoromethyl)pyridin-2-yl)-5H-pyrrolo[2,3-d]pyrimidin-6(7H)-one] reads 384 nM.

System in a further data set: not listed separately
The experiment in a line: IV Cassette PK Assay in rats. The settings on record: rat, male Wistar-Han rats, plasma, LC-MS/MS, read-out: Cassette PK T1/2 (converted). In kind it is in vivo. As to the method:
The results were obtained using the following the procedure:
Adult male Wistar-Han rats were fasted overnight and administered a cassette IV dose of mixture of several compounds via a previously implanted catheter in the femoral vein. Animals were allowed access to food 4 h post dose. Blood samples were collected into EDTA-containing tubes at the following time points: 0.03, 0.13, 0.25, 0.5, 1, 2, 4, 8 h post-dose. Blood samples were stored on ice until plasma was harvested by centrifugation. Plasma was transferred to a 96-well plate and stored at −20° C. until analysis. Concentrations of each compound in rat plasma were determined by LC-MS/MS following protein precipitation.
With `Nc1nc(-c2cn3ncnc3c(CCCC(F)(F)F)n2)nc2c1C(c1ccc(C(F)F)cn1)(C1CC1)C(=O)N2` (racemic) [Example 44B, 4-amino-5-cyclopropyl-5-(5-(difluoromethyl)pyridin-2-yl)-2-(8-(4,4,4-trifluorobutyl)-[1,2,4]triazolo[1,5-a]pyrazin-6-yl)-5H-pyrrolo[2,3-d]pyrimidin-6(7H)-one], the half-life is 3.94 h. For the compound `C[C@@]1(c2ccc(F)cc2)C(=O)Nc2nc(-c3cn4ncnc4c(CCC(F)(F)C(F)(F)F)n3)nc(N)c21` [Example 1A, (S)-4-Amino-5-(4-fluorophenyl)-5-methyl-2-(8-(3,3,4,4,4-pentafluorobutyl)-[1,2,4]triazolo[1,5-a]pyrazin-6-yl)-5H-pyrrolo[2,3-d]pyrimidin-6(7H)-one], the half-life is 3.35 h. For `CC1(c2ccc(F)cc2)C(=O)Nc2nc(-c3cn4ccnc4c(CCC(F)(F)C(F)(F)F)n3)nc(N)c21` (centres unmarked) [reference compound], the half-life was 1.04 h. As for `CC1(c2ccc(F)cn2)C(=O)Nc2nc(-c3cn4ncnc4c(CCC(F)(F)C(F)(F)F)n3)nc(N)c21` (centres unmarked) [Example 4B, 4-amino-5-(5-fluoropyridin-2-yl)-5-methyl-2-(8-(3,3,4,4,4-pentafluorobutyl)-[1,2,4]triazolo[1,5-a]pyrazin-6-yl)-5H-pyrrolo[2,3-d]pyrimidin-6(7H)-one], the half-life was 2.97 h.
